{
  "source": "paper PMC9296036",
  "about": "“A peptide interfering with the dimerization of oncogenic KITENIN protein and its stability suppresses colorectal tumour progression” (Clinical and Translational Medicine, 2022)",
  "key": {"[1]": {"system": "CT-26/iRFP/KITENIN cells", "test": "Transwell cell invasion assay, CT-26/iRFP/KITENIN or CT-26/KITENIN-V5 cells", "assay_type": "cell-based, mouse", "conditions": "increasing doses of KDIP, compared with scramble peptide"}, "[2]": {"target": "T1, KITENIN (Mus musculus, UniProt Q80Z96)", "T1 construct": "decreased endogenous KITENIN protein levels in non‐transfected HCT116 and CT‐26 cells; endogenous in cells; host or cells: CT-26", "T1 sequence (Q80Z96 1-526)": "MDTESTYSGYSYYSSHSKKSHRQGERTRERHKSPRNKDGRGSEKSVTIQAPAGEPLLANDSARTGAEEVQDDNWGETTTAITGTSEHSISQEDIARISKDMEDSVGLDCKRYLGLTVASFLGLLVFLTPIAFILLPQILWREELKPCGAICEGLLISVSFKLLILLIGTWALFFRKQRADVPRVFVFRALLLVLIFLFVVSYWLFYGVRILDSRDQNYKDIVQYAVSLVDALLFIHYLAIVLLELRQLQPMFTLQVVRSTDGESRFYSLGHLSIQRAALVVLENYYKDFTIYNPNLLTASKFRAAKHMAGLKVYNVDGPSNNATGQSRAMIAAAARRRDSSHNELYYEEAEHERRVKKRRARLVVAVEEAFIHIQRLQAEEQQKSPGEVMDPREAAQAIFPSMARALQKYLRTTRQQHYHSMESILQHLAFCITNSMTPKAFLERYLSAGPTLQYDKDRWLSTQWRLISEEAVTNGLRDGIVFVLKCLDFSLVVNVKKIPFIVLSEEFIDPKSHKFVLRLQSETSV", "test": "Endogenous KITENIN protein level in CT-26 cells (immunoblot)", "assay_type": "cell-based", "conditions": "non-transfected CT-26 cells, KDIP 1 μM, 12 h", "description": "Antibodies against the following proteins were obtained from the indicated suppliers: Na^+/K^+ ATPase, GFP and tubulin (Santa Cruz Biotechnology); c‐Jun, p‐c‐Jun, ERK, p‐ERK, c‐MET, p‐c‐MET and GST (Cell Signaling Technology); V5, Myc (MBL); HA and β‐actin (Sigma); KITENIN (Atlas); His and RACK1, LC3, p62, Myo10, and eukaryotic elongation factor 2 (eEF2) (Abcam). They were used with appropriate secondary antibodies (Thermo). For transient transfection analyses, Caco2, HCT116 and 293T cells were transfected with various plasmids and harvested for immunoblot analysis 48 h after transfection. For most assays using stable cell lines, mixed polyclonal cells were used to exclude clonal variation. […]\nFIGURE 2 KAI1 C‐terminal interacting tetraspanin (KITENIN) dimerization‐interfering peptide (KDIP) suppresses KITENIN‐induced enhanced cell invasion through the inhibition of the homodimerization of KITENIN. […] After 48 h of treatment, KITENIN transcripts in cells were analysed by the 2^−ΔΔ ^CT method using Q‐PCR. […] Caco2 cells were co‐transfected with KITENIN‐V5/Myc and treated with or without KDIP or scrambled peptide (scr) and were immunoprecipitated with anti‐V5 antibody and detected by indicated antibodies. Numerals indicated a quantification of the MYC bands normalized to the corresponding V5 bands (left panel). […] Numerals indicated a quantification of the bands observed (left panel). […]"}},
  "note": "Ends that are not written are not given here.",
  "data": [
    {"sequence": "YARVRRRGPRRWRLVSDEAV [KDIP]", "values": [
      {"measurement": "cell invasion of CT-26/KITENIN-V5 cells (in words)", "setting": "[1]", "result": "significantly reduced"},
      {"measurement": "endogenous KITENIN protein level (in words)", "setting": "[2]", "result": "decreased"}
    ]}
  ]
}
